In publication PMC9863657, “A Tailored Strategy to Crosslink the Aspartate Transcarbamoylase Domain of the Multienzymatic Protein CAD” (Molecules, 2023):
Values belong to the molecule of their own block, whether it stands above or below them.

What was measured:
[1] = target: full-length C. thermophilum CAD-like protein (Chaetomium thermophilum); test: not stated; unpublished results: recombinant full-length protein isolated as hexameric particles
[2] = target: ATC domain of C. thermophilum CAD-like protein with mutations N2045C and R2238C (ctATC2Cys) (Chaetomium thermophilum); test: crystal structure; crystals of ctATC2Cys free and with 2 mM carbamoyl phosphate (CP), space group P4(3)32, one subunit per asymmetric unit
[3] = target: ATC domain of C. thermophilum CAD-like protein with mutations N2045C and R2238C (ctATC2Cys) (Chaetomium thermophilum); test: SEC; Superdex 200 10/300 GL in 20 mM Tris-HCl pH 8.0, 150 mM NaCl, room temperature; molecular weight estimated from calibration with standards
[4] = target: T1, ctATC (ATC domain of C. thermophilum CAD-like protein) (Thermochaetoides thermophila, UniProt G0S583, N2045C/R2238C); test: colorimetric carbamoyl aspartate assay; type: biochemical; conditions: 5 mM CP; 50 mM Tris-acetate pH 8.3; 25 °C; 0.1 µM enzyme; substrate inhibition model; range printed jointly for WT and double mutant; disulfide-crosslinked trimer; read-out: S0.5^Asp
T1 construct: gene CTHT_0032600; isolated ATC domain aa 1939-2253; N-terminal His6-MBP cut with PreScission; E. coli BL21(DE3) pLysS; homotrimer, 119 kDa by SEC (ctATC2Cys, similar to WT)
T1 sequence (G0S583 entry or part of it N2045C/R2238C): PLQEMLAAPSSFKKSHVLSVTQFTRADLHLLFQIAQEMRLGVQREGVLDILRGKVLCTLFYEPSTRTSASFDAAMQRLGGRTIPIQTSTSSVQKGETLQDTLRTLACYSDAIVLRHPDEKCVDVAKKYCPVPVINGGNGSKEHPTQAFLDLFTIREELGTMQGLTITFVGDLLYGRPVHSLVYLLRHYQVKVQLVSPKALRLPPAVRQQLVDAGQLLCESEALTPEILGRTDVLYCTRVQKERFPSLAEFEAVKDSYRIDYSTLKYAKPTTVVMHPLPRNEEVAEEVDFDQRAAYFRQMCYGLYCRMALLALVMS

[5] = target: T2, ctATC (ATC domain of C. thermophilum CAD-like protein) (Thermochaetoides thermophila, UniProt G0S583); test: colorimetric carbamoyl aspartate assay; type: biochemical; conditions: 5 mM CP; 50 mM Tris-acetate pH 8.3; 25 °C; 0.1 µM enzyme; substrate inhibition model; range printed jointly for WT and double mutant; read-out: S0.5^Asp
T2 construct: gene CTHT_0032600; isolated ATC domain aa 1939-2253; N-terminal His6-MBP cut with PreScission; E. coli BL21(DE3) pLysS; homotrimer, 119 kDa by SEC (ctATC2Cys, similar to WT)
T2 sequence (G0S583 entry or part of it): as the sequence (G0S583 entry or part of it N2045C/R2238C) above, with C107N, C300R counted along it

[6] = target: T1, ctATC (ATC domain of C. thermophilum CAD-like protein); test: differential scanning fluorimetry; type: binding; conditions: 1 mM PALA; 5 µM protein; pH 7.0; disulfide-crosslinked trimer; Tm without PALA 73.5 °C; transition state analog
[7] = target: T2, ctATC (ATC domain of C. thermophilum CAD-like protein); test: differential scanning fluorimetry; type: binding; conditions: 1 mM PALA; 5 µM protein; pH 7.0; Tm without PALA 53.9 °C; transition state analog

- stoichiometry N [1]: 6
Molecule: full-length C. thermophilum CAD-like protein (natural protein)

- stoichiometry N [2]: 3
- stoichiometry N [3]: 3
Molecule: ATC domain of C. thermophilum CAD-like protein with mutations N2045C and R2238C (ctATC2Cys) (domain or fragment)

- Km [4]: 1500 to 2000 µM
- Km [5]: 1500 to 2000 µM
Molecule: N[C@@H](CC(=O)O)C(=O)O [Asp, aspartate]

- Tm [6]: ~ 90 °C
- Tm [7]: ~ 90 °C
Molecule: O=C(O)C[C@H](NC(=O)CP(=O)(O)O)C(=O)O [PALA]
